Like-named read-outs stand apart in the source and are kept apart here.
Experiments:
[1] = molecular target: T1, EGFR wild type (Homo sapiens, UniProt P00533); test: Inhibition of EGFR wild type biochemical enzymatic activity (HTRF); conditions: EGFR WT, 1 mM ATP, 1 h, room temperature, read-out: IC50 (nM) @WT
T1 construct: purchased Carna Bio
Summary of the method: (§1)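 Time-resolved FRET assay of EGFR substrate phosphorylation. Conditions: 1 μM TK substrate-biotin, 1 mM ATP, Mg/Mn buffer, 1 h at RT. IC50 from 4-parameter curve fit.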

[2] = molecular target: T2, EGFR L858R (Homo sapiens, UniProt P00533, L858R); test: Inhibition of EGFR L858R biochemical enzymatic activity (HTRF); conditions: 1 mM ATP, 1 h, room temperature, read-out: IC50 (nM) @L858R
T2 construct: purchased Carna Bio
Summary of the method: as §1

[3] = molecular target: T3, EGFR L858R/T790M (Homo sapiens, UniProt P00533, L858R/T790M); test: Inhibition of EGFR L858R/T790M biochemical enzymatic activity (HTRF); conditions: EGFR L858R-T790M, 1 mM ATP, 1 h, room temperature, read-out: IC50 (nM) @L858R-T790M
T3 construct: purchased Carna Bio
Summary of the method: as §1

[4] = molecular target: T4, EGFR Exon19Del (Homo sapiens, UniProt P00533, DEL746-750); test: Inhibition of EGFR Exon19Del biochemical enzymatic activity (HTRF); conditions: EGFR Del19, 1 mM ATP, 1 h, room temperature, read-out: IC50 @Del19
T4 construct: purchased Carna Bio
Summary of the method: as §1

[5] = molecular target: T5, EGFR Exon19Del/T790M (Homo sapiens, UniProt P00533, DEL746-750/T790M); test: Inhibition of EGFR Exon19Del/T790M biochemical enzymatic activity (HTRF); conditions: EGFR Del19-T790M, 1 mM ATP, 1 h, room temperature, read-out: IC50 (nM) @Del19-T790M
T5 construct: purchased Carna Bio
Summary of the method: as §1

[6] = molecular target: T6, EGFR[T790M/C797S/L858R] (Homo sapiens, UniProt P00533, C797S/L858R/T790M); test: Inhibition of EGFR[T790M/C797S/L858R] biochemical enzymatic activity (HTRF); conditions: EGFR T790M-C797S-L858R, 1 mM ATP, 1 h, room temperature, read-out: IC50 (nM) @T790M- C797S - L858R
T6 construct: purchased Carna Bio
Summary of the method: as §1

[7] = molecular target: T7, EGFR[T790M/C797S/d746-750] (Homo sapiens, UniProt P00533, C797S/DEL746-750/T790M); test: Inhibition of EGFR[T790M/C797S/d746-750] biochemical enzymatic activity (HTRF); conditions: EGFR T790M-C797S-Del19, 1 mM ATP, 1 h, room temperature, read-out: IC50 (nM) @T790M - C797S - Del19
T7 construct: purchased Carna Bio
Summary of the method: as §1

[8] = molecular target: T8, EGFR (d746-750 C797S) (Homo sapiens, UniProt P00533, C797S/DEL746-750); test: Inhibition of EGFR (d746-750 C797S) biochemical enzymatic activity (HTRF); conditions: EGFR Del19-C797S, 1 mM ATP, 1 h, room temperature, read-out: IC50 (nM) @Del19-C797S
T8 construct: purchased signalchem
Summary of the method: as §1

[9] = molecular target: T9, EGFR (C797S L858R) (Homo sapiens, UniProt P00533, C797S/L858R); test: Inhibition of EGFR (C797S L858R) biochemical enzymatic activity (HTRF); conditions: EGFR L858-C797S, 1 mM ATP, 1 h, room temperature, read-out: IC50 (nM) @L858-C797S
T9 construct: purchased signalchem
Summary of the method: as §1

[10] = tested on: Ba/F3 cells expressing EGFR mutations; test: Cell proliferation assay, Ba/F3 cells expressing EGFR mutations (CellTiter-Glo, 72 hours); format: cell-based; conditions: CellTiter-Glo
Summary of the method: (§2)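 Growth over 72 h was quantified by CellTiter-Glo luminescence, normalised as (G3 − G0)/(DMSO G3 − G0), for PC-9 cells seeded at 500/well and EGFR-mutant Ba/F3 cells at 5000/well in RPMI1640. Compound concentration series added after overnight incubation; GI50 obtained from best-fit curves.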

[11] = tested on: PC-9; test: Cell proliferation assay, PC-9 cells (CellTiter-Glo, 72 hours); format: cell-based; conditions: PC9 cells, CellTiter-Glo, read-out: PC9 GI50
Summary of the method: as §2

[12] = tested on: A-431; test: Cell proliferation GI50, A-431 cells (Table 6); format: cell-based
[13] = Mus musculus, BaF3, 72 h, BaF3 cells, EGFR DEL19-C797S, read-out: DEL19-C797S/BaF3 GI50
[14] = Mus musculus, BaF3, 72 h, BaF3 cells, EGFR DEL19-T790-C797S, read-out: DEL19-T790-C797S/BaF3 GI50
[15] = Mus musculus, BaF3, 72 h, BaF3 cells, EGFR L858R, read-out: L858R/BaF3 GI50
[16] = Mus musculus, BaF3, 72 h, BaF3 cells, EGFR L858R-C797S, read-out: L858R-C797S/BaF3 GI50
[17] = Mus musculus, BaF3, 72 h, BaF3 cells, EGFR L858R-T790-C797S, read-out: L858R-T790-C797S/BaF3 GI50
[18] = Mus musculus, BaF3, 72 h, BaF3 cells, EGFR L858R-T790M, read-out: L858R-T790M/BaF3 GI50
[19] = Mus musculus, BaF3, 72 h, EGFR DEL19-T790M, read-out: DEL19-T790M GI50
[20] = Homo sapiens, A-431, A-431 cells
[21] = BaF3 cells, EGFR DEL19-C797S, read-out: DEL19-C797S/BaF3 GI50
[22] = BaF3 cells, EGFR DEL19-T790-C797S, read-out: DEL19-T790-C797S/BaF3 GI50
[23] = BaF3 cells, EGFR L858R, read-out: L858R/BaF3 GI50
[24] = BaF3 cells, EGFR L858R-C797S, read-out: L858R-C797S/BaF3 GI50
[25] = BaF3 cells, EGFR L858R-T790-C797S, read-out: L858R-T790-C797S/BaF3 GI50
[26] = BaF3 cells, EGFR L858R-T790M, read-out: L858R-T790M/BaF3 GI50
[27] = EGFR DEL19-T790M, read-out: DEL19-T790M GI50

T3 sequence (P00533 25-1210 T790M/L858R): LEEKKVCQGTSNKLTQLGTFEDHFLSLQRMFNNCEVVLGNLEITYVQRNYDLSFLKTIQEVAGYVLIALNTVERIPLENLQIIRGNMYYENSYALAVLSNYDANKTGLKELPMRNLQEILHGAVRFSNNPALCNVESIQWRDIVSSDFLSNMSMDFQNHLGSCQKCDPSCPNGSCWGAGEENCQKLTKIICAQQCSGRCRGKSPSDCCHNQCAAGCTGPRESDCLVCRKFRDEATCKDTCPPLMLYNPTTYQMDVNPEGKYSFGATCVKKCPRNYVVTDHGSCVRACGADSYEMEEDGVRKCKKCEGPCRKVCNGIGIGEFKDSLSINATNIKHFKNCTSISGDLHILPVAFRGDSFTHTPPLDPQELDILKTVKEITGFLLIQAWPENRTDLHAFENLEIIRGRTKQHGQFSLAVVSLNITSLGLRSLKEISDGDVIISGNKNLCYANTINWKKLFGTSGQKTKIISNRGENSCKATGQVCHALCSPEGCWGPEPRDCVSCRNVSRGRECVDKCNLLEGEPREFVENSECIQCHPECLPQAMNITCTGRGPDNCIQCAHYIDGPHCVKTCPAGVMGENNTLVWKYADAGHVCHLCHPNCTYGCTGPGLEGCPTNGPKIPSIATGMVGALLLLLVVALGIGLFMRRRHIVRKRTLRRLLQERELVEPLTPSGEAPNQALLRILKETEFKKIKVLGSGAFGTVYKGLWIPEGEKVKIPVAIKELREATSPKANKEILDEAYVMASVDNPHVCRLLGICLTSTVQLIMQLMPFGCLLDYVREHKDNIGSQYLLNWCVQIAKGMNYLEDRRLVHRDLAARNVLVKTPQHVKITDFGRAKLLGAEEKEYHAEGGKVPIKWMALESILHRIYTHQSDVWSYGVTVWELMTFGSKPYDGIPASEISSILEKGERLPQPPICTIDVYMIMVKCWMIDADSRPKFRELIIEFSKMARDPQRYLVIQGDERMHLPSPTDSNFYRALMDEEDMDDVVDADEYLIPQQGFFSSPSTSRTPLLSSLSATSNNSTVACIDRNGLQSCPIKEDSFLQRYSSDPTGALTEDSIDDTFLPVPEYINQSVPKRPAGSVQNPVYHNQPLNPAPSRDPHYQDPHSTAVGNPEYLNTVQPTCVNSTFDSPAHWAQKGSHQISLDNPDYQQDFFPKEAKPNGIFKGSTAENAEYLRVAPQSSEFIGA
T6 sequence (P00533 25-1210 T790M/C797S/L858R): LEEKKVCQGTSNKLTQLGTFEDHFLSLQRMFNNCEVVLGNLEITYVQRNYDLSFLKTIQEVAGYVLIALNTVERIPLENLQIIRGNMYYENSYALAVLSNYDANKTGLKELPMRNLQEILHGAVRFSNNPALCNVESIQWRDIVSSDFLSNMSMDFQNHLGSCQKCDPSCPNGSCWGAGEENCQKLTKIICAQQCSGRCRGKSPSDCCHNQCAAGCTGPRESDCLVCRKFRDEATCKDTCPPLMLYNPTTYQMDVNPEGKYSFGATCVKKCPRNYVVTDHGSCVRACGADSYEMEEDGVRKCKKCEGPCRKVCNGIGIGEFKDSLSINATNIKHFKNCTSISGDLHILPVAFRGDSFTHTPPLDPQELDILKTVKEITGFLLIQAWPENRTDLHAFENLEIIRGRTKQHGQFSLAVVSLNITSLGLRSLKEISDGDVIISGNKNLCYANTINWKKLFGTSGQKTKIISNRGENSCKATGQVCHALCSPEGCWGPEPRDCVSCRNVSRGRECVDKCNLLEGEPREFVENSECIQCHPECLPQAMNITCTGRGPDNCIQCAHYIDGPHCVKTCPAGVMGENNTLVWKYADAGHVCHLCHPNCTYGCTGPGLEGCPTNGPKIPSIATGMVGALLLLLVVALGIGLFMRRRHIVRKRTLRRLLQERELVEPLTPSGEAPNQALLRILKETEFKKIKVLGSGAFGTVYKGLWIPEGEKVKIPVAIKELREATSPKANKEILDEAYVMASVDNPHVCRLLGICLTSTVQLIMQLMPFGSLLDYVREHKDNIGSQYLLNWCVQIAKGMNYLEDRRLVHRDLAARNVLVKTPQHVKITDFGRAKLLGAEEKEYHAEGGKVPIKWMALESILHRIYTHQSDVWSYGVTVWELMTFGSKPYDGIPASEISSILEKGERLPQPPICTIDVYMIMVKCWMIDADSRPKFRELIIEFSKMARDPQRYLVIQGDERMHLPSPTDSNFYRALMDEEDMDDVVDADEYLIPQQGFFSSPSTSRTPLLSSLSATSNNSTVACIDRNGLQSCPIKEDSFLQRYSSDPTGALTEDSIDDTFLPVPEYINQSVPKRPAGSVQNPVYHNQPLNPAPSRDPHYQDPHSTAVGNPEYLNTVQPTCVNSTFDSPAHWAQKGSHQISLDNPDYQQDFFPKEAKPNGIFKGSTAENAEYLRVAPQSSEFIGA
T5 sequence (P00533 with tags, fused parts or gaps DEL746-750/T790M limits assumed): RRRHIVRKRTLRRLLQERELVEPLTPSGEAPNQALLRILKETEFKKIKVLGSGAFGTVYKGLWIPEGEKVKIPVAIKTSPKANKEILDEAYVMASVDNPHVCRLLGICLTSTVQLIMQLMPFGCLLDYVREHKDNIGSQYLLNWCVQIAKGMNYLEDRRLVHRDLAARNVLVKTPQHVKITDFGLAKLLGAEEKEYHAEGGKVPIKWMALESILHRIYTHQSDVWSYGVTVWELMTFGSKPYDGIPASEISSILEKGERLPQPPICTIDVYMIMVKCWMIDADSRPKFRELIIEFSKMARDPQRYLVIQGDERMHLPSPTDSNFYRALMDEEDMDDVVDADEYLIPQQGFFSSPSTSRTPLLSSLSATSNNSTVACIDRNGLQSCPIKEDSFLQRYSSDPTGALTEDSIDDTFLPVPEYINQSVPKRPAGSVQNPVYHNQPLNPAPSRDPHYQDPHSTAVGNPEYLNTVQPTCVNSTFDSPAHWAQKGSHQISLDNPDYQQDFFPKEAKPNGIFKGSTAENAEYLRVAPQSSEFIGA
T7 sequence (P00533 with tags, fused parts or gaps DEL746-750/T790M/C797S limits assumed): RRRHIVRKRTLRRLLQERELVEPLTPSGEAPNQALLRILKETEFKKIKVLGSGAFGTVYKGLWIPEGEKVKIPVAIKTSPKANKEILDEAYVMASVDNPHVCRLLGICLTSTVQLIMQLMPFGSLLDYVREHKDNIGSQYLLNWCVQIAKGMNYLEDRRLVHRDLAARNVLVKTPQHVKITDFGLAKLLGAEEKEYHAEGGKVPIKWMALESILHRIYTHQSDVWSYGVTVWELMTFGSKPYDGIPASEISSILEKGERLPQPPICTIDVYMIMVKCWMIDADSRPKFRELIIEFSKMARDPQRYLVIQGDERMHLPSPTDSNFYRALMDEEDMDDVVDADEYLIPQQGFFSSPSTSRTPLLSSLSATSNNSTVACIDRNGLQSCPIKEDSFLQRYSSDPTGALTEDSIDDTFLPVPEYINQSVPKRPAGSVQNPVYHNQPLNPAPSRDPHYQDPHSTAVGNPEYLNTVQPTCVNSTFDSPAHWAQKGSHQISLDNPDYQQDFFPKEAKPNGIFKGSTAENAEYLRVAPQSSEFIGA
T9 sequence (P00533 25-1210 C797S/L858R): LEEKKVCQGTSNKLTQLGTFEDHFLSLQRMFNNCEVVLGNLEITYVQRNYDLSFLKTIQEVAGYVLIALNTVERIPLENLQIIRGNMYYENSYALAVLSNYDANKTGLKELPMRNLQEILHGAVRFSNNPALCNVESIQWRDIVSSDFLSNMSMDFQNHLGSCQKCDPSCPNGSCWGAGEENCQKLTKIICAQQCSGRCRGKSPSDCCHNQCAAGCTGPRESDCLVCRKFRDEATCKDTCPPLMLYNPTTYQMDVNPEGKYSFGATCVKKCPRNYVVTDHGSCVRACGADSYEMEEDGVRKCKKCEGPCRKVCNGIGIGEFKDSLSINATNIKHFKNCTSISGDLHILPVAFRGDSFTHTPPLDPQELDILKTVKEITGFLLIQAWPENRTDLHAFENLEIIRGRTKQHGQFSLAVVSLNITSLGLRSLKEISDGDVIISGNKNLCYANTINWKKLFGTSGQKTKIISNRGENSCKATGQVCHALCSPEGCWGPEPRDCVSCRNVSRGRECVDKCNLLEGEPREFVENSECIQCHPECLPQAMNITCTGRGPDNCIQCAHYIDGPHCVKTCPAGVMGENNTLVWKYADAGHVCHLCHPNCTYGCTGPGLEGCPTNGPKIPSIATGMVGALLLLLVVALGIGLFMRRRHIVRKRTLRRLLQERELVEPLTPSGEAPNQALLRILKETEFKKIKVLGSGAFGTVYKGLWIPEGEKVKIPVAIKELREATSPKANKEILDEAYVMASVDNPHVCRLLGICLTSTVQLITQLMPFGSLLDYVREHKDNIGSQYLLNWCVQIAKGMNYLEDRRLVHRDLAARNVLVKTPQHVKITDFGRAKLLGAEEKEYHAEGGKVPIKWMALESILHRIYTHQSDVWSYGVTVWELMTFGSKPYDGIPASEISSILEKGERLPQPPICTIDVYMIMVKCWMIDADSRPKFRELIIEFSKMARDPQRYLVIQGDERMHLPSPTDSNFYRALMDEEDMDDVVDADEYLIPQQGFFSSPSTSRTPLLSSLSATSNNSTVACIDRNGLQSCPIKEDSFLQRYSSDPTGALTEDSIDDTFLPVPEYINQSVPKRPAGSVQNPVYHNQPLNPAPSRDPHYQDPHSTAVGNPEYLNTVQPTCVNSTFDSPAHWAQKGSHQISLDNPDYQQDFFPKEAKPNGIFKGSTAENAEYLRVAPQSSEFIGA

C[C@@H]1CCCOc2c(cnn2C)-c2cc(cn(C)c2=O)C(=O)Nc2nc3ccc(N4CCN(C)CC4)c(Cl)c3n2C1 [Example A101, (11R)-15-Chloro-5,11,26-trimethyl-16-(4-methylpiperazin-1-yl)-7-oxa-4,5,13,20,22,26-hexaazapentacyclo[22.3.1.0^{2,6}.0^{13,21}.0^{14,19}]octacosa-1(28),2(6),3,14,16,18,20,24-octaene-23,27-dione]
IC50 [1]: > 5000 nM
IC50 [2]: 212 nM
IC50 [3]: 7.4 nM
IC50 [4]: 3.5 nM
IC50 [5]: 2.3 nM
IC50 [6]: 3.2 nM
IC50 [7]: 1.8 nM
IC50 [8]: 2.3 nM
IC50 [9]: 47 nM
GI50 [10, 13]: 8.1 nM
GI50 [10, 14]: 58 nM
GI50 [10, 15]: 68 nM
GI50 [10, 16]: 31 nM
GI50 [10, 17]: 57 nM
GI50 [10, 18]: 260 nM
GI50 [10, 19]: 92 nM
GI50 ([11]; Homo sapiens, PC-9, 72 h): 128 nM
GI50 [12, 20]: 1410 nM

C[C@@H]1CCCOc2c(cnn2C)-c2cc(cn(C)c2=O)C(=O)Nc2nc3ccc(N4CCN(CC(F)(F)F)CC4)cc3n2C1 [Example A53]
IC50 [1]: > 5000 nM
IC50 [2]: 462 nM
IC50 [3]: 70 nM
IC50 [4]: 15 nM
IC50 [5]: 12 nM
IC50 [6]: 21 nM
IC50 [7]: 13 nM
IC50 [8]: 7.2 nM
IC50 [9]: 135 nM
GI50 [10, 13]: 7.4 nM
GI50 [10, 14]: 27 nM
GI50 [10, 15]: 28 nM
GI50 [10, 16]: 34 nM
GI50 [10, 17]: 35 nM
GI50 [10, 18]: 51 nM
GI50 [10, 19]: 49 nM
GI50 ([11]; Homo sapiens, PC-9, 72 h): 51 nM
GI50 [12, 20]: 639 nM

C[C@@H]1CCCOc2c(cnn2C)-c2cc(cn(C)c2=O)C(=O)Nc2nc3ccc(N4CCN(C5COC5)CC4)cc3n2C1 [Example A39]
IC50 [1]: 1520 nM
IC50 [2]: 74 nM
IC50 [3]: 14 nM
IC50 [4]: 5.9 nM
IC50 [5]: 5 nM
IC50 [6]: 8.2 nM
IC50 [7]: 5.1 nM
IC50 [8]: 2.8 nM
IC50 [9]: 30 nM
GI50 [10, 13]: 1.9 nM
GI50 [10, 14]: 4.7 nM
GI50 [10, 15]: 5.2 nM
GI50 [10, 16]: 6.9 nM
GI50 [10, 17]: 5.4 nM
GI50 [10, 18]: 16 nM
GI50 [10, 19]: 8.4 nM
GI50 ([11]; Homo sapiens, PC-9, 72 h): 7.6 nM
GI50 [12, 20]: 290 nM

Cn1ncc2c1OCCN1CC(CCC1(C)C)n1c(nc3ccc(N4CCOCC4)cc31)NC(=O)c1cc-2c(=O)n(C)c1 (stereo not drawn) [Example A12, 15,21,27,27-Tetramethyl-5-(morpholin-4-yl)-23-oxa-2,9,11,15,20,21,26-heptaazahexacyclo[24.3.1.1^{13,17}.0^{2,10}.0^{3,8}.0^{18,22}]hentriaconta-3,5,7,9,13,17(31),18(22),19-octaene-12,16-dione]
IC50 [1]: > 5000 nM
IC50 [2]: 482 nM
IC50 [3]: 476 nM
IC50 [4]: 144 nM
IC50 [5]: 89 nM
IC50 [6]: 486 nM
IC50 [7]: 105 nM
IC50 [8]: 119 nM
IC50 [9]: 389 nM
GI50 [10, 13]: 39 nM
GI50 [10, 14]: 265 nM
GI50 [10, 15]: 72 nM
GI50 [10, 16]: 159 nM
GI50 [10, 17]: 122 nM
GI50 [10, 18]: 116 nM
GI50 [10, 19]: 197 nM
GI50 ([11]; Homo sapiens, PC-9, 72 h): 149 nM
GI50 [12, 20]: 3130 nM

CN1CCN(C2CCN(c3ccc4nc5n(c4c3)C34CCC(CN(CCOc6c(cnn6C)-c6cc(cn(C)c6=O)C(=O)N5)C3)C4)CC2)CC1 (single isomer, unassigned) [Example A106B]
IC50 [1]: 4.1 nM
IC50 [2]: 1.8 nM
IC50 [3]: 2.2 nM
IC50 [4]: 1.2 nM
IC50 [5]: 2.2 nM
IC50 [6]: 1.4 nM
IC50 [7]: 2 nM
IC50 [8]: 1 nM
IC50 [9]: 2.2 nM
GI50 [10, 21]: 0.79 nM
GI50 [10, 22]: 1.4 nM
GI50 [10, 23]: 1.1 nM
GI50 [10, 24]: 2.2 nM
GI50 [10, 25]: 3 nM
GI50 [10, 26]: 1.1 nM
GI50 [10, 27]: 1.9 nM
GI50 [11]: 7.6 nM
GI50 ([12]; A-431 cells): 732 nM

CN(C)C1CCN(c2ccc3nc4n(c3c2)C23CCC(CN(CCOc5c(cnn5C)-c5cc(cn(C)c5=O)C(=O)N4)C2)C3)CC1 (single isomer, unassigned) [Example A64B]
IC50 [1]: 3.6 nM
IC50 [2]: 2 nM
IC50 [3]: 2 nM
IC50 [4]: 1 nM
IC50 [5]: 1.8 nM
IC50 [6]: 1.9 nM
IC50 [7]: 2 nM
IC50 [8]: 0.95 nM
IC50 [9]: 2 nM
GI50 [10, 21]: 0.71 nM
GI50 [10, 22]: 0.92 nM
GI50 [10, 23]: 0.91 nM
GI50 [10, 24]: 1.7 nM
GI50 [10, 25]: 0.79 nM
GI50 [10, 26]: 4.9 nM
GI50 [10, 27]: 1.3 nM
GI50 [11]: 3.3 nM
GI50 ([12]; A-431 cells): 973 nM

Reference: US20260365670A1, “EGFR INHIBITORS AND USES THEREOF” (DIZAL (JIANGSU) PHARMACEUTICAL CO., LTD., priority 2022, published 2026)
